From patent US20100068786A1, “METHODS AND COMPOSITIONS FOR REVERSING P-GLYCOPROTEIN MEDICATED DRUG RESISTANCE” (priority 2008, published 2010)

Experiments:
[1] = system: MCF-7/DX1; conditions: MCF-7/DX1 vs MCF-7 cells; cited from earlier work
[2] = target: T1, P-gp (Mus musculus, UniProt P21447); conditions: P-gp knock-out mice vs wild-type; cited from earlier work
T1 construct: A comparison of P-gp knock-out mice to their wild-type counterparts; host or cells: mouse, in vivo (blood-brain barrier)
T1 sequence (P21447 whole entry): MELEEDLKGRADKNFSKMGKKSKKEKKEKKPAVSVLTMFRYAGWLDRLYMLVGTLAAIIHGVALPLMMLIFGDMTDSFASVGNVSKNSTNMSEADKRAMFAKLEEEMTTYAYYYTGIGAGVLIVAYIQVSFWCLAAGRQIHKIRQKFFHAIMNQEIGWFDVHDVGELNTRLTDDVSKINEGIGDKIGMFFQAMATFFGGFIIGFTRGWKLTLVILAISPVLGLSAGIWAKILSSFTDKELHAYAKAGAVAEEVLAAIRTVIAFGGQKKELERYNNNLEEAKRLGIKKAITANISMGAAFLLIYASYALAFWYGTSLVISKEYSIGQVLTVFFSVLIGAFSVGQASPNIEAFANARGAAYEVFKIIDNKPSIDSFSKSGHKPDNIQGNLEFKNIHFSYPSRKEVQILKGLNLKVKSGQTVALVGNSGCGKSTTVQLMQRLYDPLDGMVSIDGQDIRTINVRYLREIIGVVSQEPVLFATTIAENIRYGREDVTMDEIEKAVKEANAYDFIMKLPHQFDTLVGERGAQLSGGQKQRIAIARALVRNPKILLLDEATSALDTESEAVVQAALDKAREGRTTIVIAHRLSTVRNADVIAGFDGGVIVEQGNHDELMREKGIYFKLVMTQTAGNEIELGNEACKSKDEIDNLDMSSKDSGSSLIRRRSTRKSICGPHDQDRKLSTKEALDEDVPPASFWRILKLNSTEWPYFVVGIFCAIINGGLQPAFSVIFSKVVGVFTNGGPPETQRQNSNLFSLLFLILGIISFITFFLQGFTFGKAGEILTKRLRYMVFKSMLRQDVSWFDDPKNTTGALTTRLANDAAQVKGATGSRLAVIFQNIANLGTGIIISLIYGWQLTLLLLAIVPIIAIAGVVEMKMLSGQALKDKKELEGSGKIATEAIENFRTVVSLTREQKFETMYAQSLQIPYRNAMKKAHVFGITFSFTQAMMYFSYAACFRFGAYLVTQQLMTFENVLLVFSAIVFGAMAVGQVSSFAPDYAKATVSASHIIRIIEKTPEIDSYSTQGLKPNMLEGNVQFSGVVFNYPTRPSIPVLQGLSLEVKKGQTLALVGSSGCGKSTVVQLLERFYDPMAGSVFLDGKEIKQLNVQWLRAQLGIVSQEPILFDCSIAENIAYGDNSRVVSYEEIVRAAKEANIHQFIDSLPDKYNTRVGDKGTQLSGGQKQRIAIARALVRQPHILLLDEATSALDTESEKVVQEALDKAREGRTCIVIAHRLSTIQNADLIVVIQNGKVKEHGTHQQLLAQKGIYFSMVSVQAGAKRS

[3] = target: T1, P-gp; conditions: co-administration in mice of P-gp inhibitor LY335979 and nelfinavir; cited from earlier work
[4] = system: implanted human glioblastomas; conditions: cited from earlier work
[5] = system: MCF-7/DX1 cells; assay: MTT cell viability assay, reversal of taxol resistance; type: cell-based, human; conditions: P-gp over-expressing MCF-7/DX1 cell line, FIG. 8
Protocol: The inhibition of P-gp transport was evaluated with the prodrug dimers and monomer controls in the human carcinoma MCF7-DX1 cell line.
The P-gp-mediated multidrug resistance phenotype of cancer cells is characterized by the ability of cells to evade the cytotoxic effects of drugs that are substrates of P-gp and remain viable even at high extracellular drugs concentrations. One such compound is the cytostatic agent taxol, which is also a known P-gp substrate (Horwitz et al., 1993). Cells lines that over-express P-gp, such as the MCF-7/DX1 cell line, display a 3000-fold decrease in susceptibility to taxol (FIG. 8).

COc1cccc2c1C(=O)c1c(O)c3c(c(O)c1C2=O)C[C@@](O)(C(=O)CO)C[C@@H]3O[C@H]1C[C@H](N)[C@H](O)[C@H](C)O1 [doxorubicin]
resistance to doxorubicin [1]: 200 fold

Cc1c(O)cccc1C(=O)N[C@@H](CSc1ccccc1)[C@H](O)CN1C[C@H]2CCCC[C@H]2C[C@H]1C(=O)NC(C)(C)C [nelfinavir]
increase in brain penetration [2]: 40 fold | increase in the level of the therapeutic agent in the brain [3]: 25 fold

CC(C)(C)NC(=O)[C@@H]1C[C@@H]2CCCC[C@@H]2CN1C[C@@H](O)[C@H](Cc1ccccc1)NC(=O)[C@H](CC(N)=O)NC(=O)c1ccc2ccccc2n1 [saquinavir]
increase in brain penetration [2]: 10 fold

CC(=O)O[C@H]1C(=O)[C@@]2(C)[C@H]([C@H](OC(=O)c3ccccc3)[C@]3(O)C[C@H](OC(=O)[C@H](O)[C@@H](NC(=O)c4ccccc4)c4ccccc4)C(C)=C1C3(C)C)[C@]1(OC(C)=O)CO[C@@H]1C[C@@H]2O [taxol, paclitaxel]
reduction of growth of implanted human glioblastomas ([4]; co-administration of paclitaxel with valspodar (PSC833) in mice): 90% | effect on tumor size ([4]; treatment with either drug alone, mice): no effect | decrease in susceptibility to taxol [5]: 3000 fold
